Target mRNA inhibition data for 30 sequences are collected here from the OligoGym collection.

The series has as its target IRF5. The settings on record: ASO.

Values joined by “and” are separate entries in the source; they are usually repeats but may differ in a detail not shown here. Equal values may be shown once. After the bases stand the sugars from the 5' end (letter, count) and the backbone: PS all phosphorothioate, else s phosphorothioate and o phosphodiester by linkage. Methylation of C is not given here. e = 2'-O-(2-methoxyethyl) (MOE); k = constrained ethyl (cEt); d = 2'-deoxy (DNA)

The sequence “GGTCTTTGAGGTCTGG (sugars k3 d9 k3 e1, PS)” registered a target mRNA inhibition (KARPAS-229, 4 µM) of 33%. For “GGTCTTTGAGGTCTGG (sugars kkddddddddkekekk, PS)”, where the note is “KARPAS-229, 4 µM”, the target mRNA inhibition is 52%. The sequence “GGTGTATTTCCCTGTC (sugars k3 d9 k3 e1, PS)” had a target mRNA inhibition (KARPAS-229, 4 µM) of 0%. On to “GGTGTATTTCCCTGTC (sugars kdddddddddkekeke, PS)”, for which the target mRNA inhibition (KARPAS-229, 4 µM) was found to be 0%. The same measure, in the same setting: the same measure for “GGTGTATTTCCCTGTC (sugars kkddddddddkekekk, PS)”: 0%. As for “GGTTCTTGGACTCTCA (sugars k2 d8 e4 k2, PS)”, the target mRNA inhibition (KARPAS-229, 0.44444 µM) amounted to 25%; the target mRNA inhibition (KARPAS-229, 1.33333 µM) was 51%; the target mRNA inhibition (KARPAS-229, 4 µM) was 54% and 64%; the target mRNA inhibition (KARPAS-229, 12 µM) came to 77%. Regarding “GGTTCTTGGACTCTCA (sugars k2 d9 e3 k2, PS)”, the target mRNA inhibition reads like this: (KARPAS-229, 0.44444 µM) 46%; (KARPAS-229, 1.33333 µM) 64%; (KARPAS-229, 4 µM) 48% and 73%; (KARPAS-229, 12 µM) 84%. Sequence “GGTTCTTGGACTCTCA (sugars kkdddddddddkekek, PS)” displayed a target mRNA inhibition (KARPAS-229, 4 µM) of 0%. Under “KARPAS-229, 4 µM”, “GGTTCTTGGACTCTCA (sugars kkkddddddddkdkdk, PS)” gave a target mRNA inhibition of 28%. The same measure, in the same setting: the same measure for “GTCTGGCCCTTTTGGA (sugars k2 d8 e4 k2, PS)”: 0%.

“GTCTGGCCCTTTTGGA (sugars kkdddddddddkekek, PS)”: where the note is “KARPAS-229, 4 µM”, the target mRNA inhibition is 0%.

The sequence “GTCTTGACCTCCCGCT (sugars k2 d8 e4 k2, PS)” showed a target mRNA inhibition (KARPAS-229, 4 µM) of 34%. Take “GTCTTGACCTCCCGCT (sugars k2 d9 e3 k2, PS)”: the target mRNA inhibition by setting is: (KARPAS-229, 0.44444 µM) 22%; (KARPAS-229, 1.33333 µM) 32%; (KARPAS-229, 4 µM) 54% and 41%; (KARPAS-229, 12 µM) 58%. “GTCTTGACCTCCCGCT (sugars kkddddddddkekekk, PS)” registered a target mRNA inhibition (KARPAS-229, 4 µM) of 26%. GTGACTGTATTACCTA (sugars k3 d10 k3, PS): the target mRNA inhibition (KARPAS-229, 0.44444 µM) turned out to be 9%; the target mRNA inhibition (KARPAS-229, 1.33333 µM) was found to be 39%; the target mRNA inhibition (KARPAS-229, 4 µM) is 62% and 70%; the target mRNA inhibition (KARPAS-229, 12 µM) came to 81%. In the case of GTGAGACGAGCAAAGG (sugars k3 d10 k3, PS), the target mRNA inhibition (KARPAS-229, 0.44444 µM) stood at 60%; the target mRNA inhibition (KARPAS-229, 1.33333 µM) came to 49%; the target mRNA inhibition (KARPAS-229, 4 µM) was 49% and 74%; the target mRNA inhibition (KARPAS-229, 12 µM) is 77%. On to “GTGAGTCTCAAACCAG (sugars k3 d9 k3 e1, PS)”, for which the target mRNA inhibition was 23% (KARPAS-229, 0.44444 µM); 39% (KARPAS-229, 1.33333 µM); 44% and 50% (KARPAS-229, 4 µM); 59% (KARPAS-229, 12 µM).

In turn, GTGAGTCTCAAACCAG (sugars k3 d10 k3, PS) gave a target mRNA inhibition (KARPAS-229, 4 µM) of 9%. With “GTGAGTCTCAAACCAG (sugars kdddddddddkekeke, PS)”, the target mRNA inhibition (KARPAS-229, 4 µM) came to 0%. Still for that read-out and setting: the value for “GTGAGTCTCAAACCAG (sugars kkdddddddddkekek, PS)” was 0%; that for “GTGTATTTCCCTGTCT (sugars k2 d8 e4 k2, PS)” was 0%. Consider “GTGTATTTCCCTGTCT (sugars k3 d9 k3 e1, PS)”, for which, where the note is “KARPAS-229, 4 µM”, the target mRNA inhibition stood at 30%. In turn, “GTGTATTTCCCTGTCT (sugars kkdddddddddkdkdk, PS)” registered a target mRNA inhibition (KARPAS-229, 4 µM) of 0%. Same read-out and setting: the same measure for “GTTATCTCCGTCCTGG (sugars kekdddddddddeekk, PS)”: 13%.

“GTTATCTCCGTCCTGG (sugars kkdddddddddkekek, PS)”: the target mRNA inhibition (KARPAS-229, 4 µM) is 0%. Regarding “GTTATCTCCGTCCTGG (sugars kkddddddddkekekk, PS)”, the target mRNA inhibition (KARPAS-229, 4 µM) was determined as 0%. On the same count and under the same terms, the value for “GTTATCTCCGTTCCTGG (sugars kkkdddddddddkeked, PS)” was 0%; that for “GTTATCTCCGTTCCTGG (sugars kkkddddddddkekekd, PS)” was 0%; that for “GTTCTTGGACTCTCAA (sugars k2 d8 e4 k2, PS)” was 8%. Still for that read-out and setting: the same measure for “GTTCTTGGACTCTCAA (sugars kkddddddddddkeke, PS)”: 27%.
